# From patent publication US10538567B2, “Compounds as peptidic trigonal GLP1/glucagon/GIP receptor agonists” (priority 2016, dated 2020)
# Numbered stars: 1 amine (or outer) side, 2 acyl side, 3 side chain; on linkers, the order of the positions; unused ones are H or OH. Square brackets hold non-standard residues; d marks the D form. Side chains are listed from the residue outwards. Peptide text beside a SMILES is read from it. * marks the point of attachment. γGlu = O=C(O)[C@H](CCC(=O)[*:2])N[*:1]; Palmitoyl = CCCCCCCCCCCCCCCC(=O)*; Aib = CC(C)(N)C(=O)O
# Test: Dynamic light scattering, hydrodynamic radius as surrogate for DLS interaction parameter kD
# Assay type: physicochemical
# Details: for Delta Rh [nm] = Rh5 − Rh1: DLS buffer system A pH 4.5; for Rh1 [nm] c = 1 mg/ml / Rh5 [nm] c = 5 mg/ml: hydrodynamic radius, DLS buffer system A pH 4.5, method C, 25° C.
# Text: A monochromatic and coherent light beam (laser) is used to illuminate the liquid sample. Dynamic Light Scattering (DLS) measures light scattered from particles (1 nm≤radius≤1 μm) that undergo Brownian motion. This motion is induced by collisions between the particles and solvent molecules that themselves are moving due to their thermal energy. The diffusional motion of the particles results in temporal fluctuations of the scattered light [Pecora, R. Dynamic Light Scattering: Applications of Photon Correlation Spectroscopy, Plenum Press, 1985].
# The scattered light intensity fluctuations are recorded and transformed into an autocorrelation function. By fitting the autocorrelation curve to an exponential function, the diffusion coefficient D of the particles in solution can be derived. The diffusion coefficient is then used to calculate the hydrodynamic radius Rh (or apparent Stokes radius) through the Stokes-Einstein equation assuming spherical particles. This calculation is defined in ISO 13321 and ISO 22412 [International Standard ISO13321 Methods for Determination of Particle Size Distribution Part 8: Photon Correlation Spectroscopy, International Organisation for Standardisation (ISO) 1996; International Standard ISO22412 Particle Size Analysis—Dynamic Light Scattering, International Organisation for Standardisation (ISO) 2008].
# For every peptide solution, the hydrodynamic radius Rh and the diffusion constant D (related via the Stokes-Einstein equation) were determined as an average over triplicates. Both parameters were determined at different peptide concentrations (e.g., Rh1 and D1: 1 mg/ml and Rh5 and D5: 5 mg/ml) in the same buffer system. The difference of these parameters between low and high peptide concentration is a surrogate for the DLS interaction parameter kD. Rh5<Rh1 or D5>D1 correspond to kD>0 and therefore to repulsive inter-particle interactions that result in improved physical (or colloidal) stability.
# DLS buffer system A) 25 mM acetate buffer pH 4.5, 3 mg/mL L-Methionine, 2.7 mg/mL m-cresol, 18 mg/mL Glycerol 85%
# DLS Method C: DLS measurements were performed on a DynaPro Plate Reader II (Wyatt Technology, Santa Barbara, Calif., US) and using one of the following black, low volume, and non-treated plates: polystyrene 384 assay plate with clear bottom (Corning, N.Y., US), polystyrene 96 assay plate with clear bottom (Corning, N.Y., US), cyclo olefin polymer (COP) 384 assay plate with clear bottom (Aurora, Mont., US), or polystyrene 384 assay plate with clear bottom (Greiner Bio-One, Germany). The data were processed with the Dynamics software provided by Wyatt Technology. Parameters of the particle size distribution were determined with non-negatively constrained least squares (NNLS) methods using DynaLS algorithms. Measurements were taken at 25° C. with an 830 nm laser light source at an angle of 158°.
# The hydrodynamic radius Rh of peptide samples was determined at different peptide concentrations (1 mg/ml and 5 mg/ml) in DLS buffer system A using DLS method C as described in Methods as surrogate for the DLS interaction parameter kD.
Delta Rh [nm] = Rh5 − Rh1 [nm],Rh1 [nm] c = 1 mg/ml [nm],Rh5 [nm] c = 5 mg/ml [nm],Structure (SMILES)
−0.4,3.0,2.6,"CCCCCCCCCCCCCCCC(=O)N[C@@H](CCC(=O)N[C@@H](CCC(=O)NCCCC[C@H](NC(=O)[C@H](CC(C)C)NC(=O)[C@H](CCCCN)NC(=O)[C@H](CO)NC(=O)[C@H](CC(C)C)NC(=O)[C@H](CC(=O)O)NC(=O)[C@H](CO)NC(=O)[C@@H](NC(=O)[C@H](Cc1ccccc1)NC(=O)[C@@H](NC(=O)CNC(=O)[C@H](Cc1c[nH]cn1)NC(=O)C(C)(C)NC(=O)[C@@H](N)Cc1c[nH]cn1)[C@@H](C)O)[C@@H](C)O)C(=O)N[C@@H](CCC(=O)O)C(=O)N[C@@H](CCC(=O)O)C(=O)N[C@@H](CCC(N)=O)C(=O)N[C@@H](CCCNC(=N)N)C(=O)N[C@@H](CCC(N)=O)C(=O)N[C@@H](CCCCN)C(=O)N[C@@H](CCC(=O)O)C(=O)N[C@@H](Cc1ccccc1)C(=O)N[C@H](C(=O)N[C@@H](CCC(=O)O)C(=O)N[C@@H](Cc1c[nH]c2ccccc12)C(=O)N[C@@H](CC(C)C)C(=O)N[C@@H](CCCCN)C(=O)N[C@@H](C)C(=O)NCC(=O)NCC(=O)N1CCC[C@H]1C(=O)N1CCC[C@H]1C(=O)N[C@@H](CO)C(=O)NC(C)(C)C(=O)N[C@@H](CCCCN)C(=O)N1CCC[C@H]1C(=O)N1CCC[C@H]1C(=O)N1CCC[C@H]1C(=O)N[C@@H](CCCCN)C(N)=O)[C@@H](C)CC)C(=O)O)C(=O)O [SEQ ID NO: 8, H-Aib-H-G-T-F-T-S-D-L-S-K-L-K[gGlu-gGlu-Palm]-E-E-Q-R-Q-K-E-F-I-E-W-L-K-A-G-G-P-P-S-Aib-K-P-P-P-K-NH2]"
−0.2,2.8,2.6,"CCCCCCCCCCCCCCCC(=O)N[C@@H](CCC(=O)N[C@@H](CCC(=O)NCCCC[C@H](NC(=O)[C@H](CC(C)C)NC(=O)[C@H](CCCCN)NC(=O)[C@H](CO)NC(=O)[C@H](CC(C)C)NC(=O)[C@H](CC(=O)O)NC(=O)[C@H](CO)NC(=O)[C@@H](NC(=O)[C@H](Cc1ccccc1)NC(=O)[C@@H](NC(=O)CNC(=O)[C@H](Cc1c[nH]cn1)NC(=O)C(C)(C)NC(=O)[C@@H](N)Cc1c[nH]cn1)[C@@H](C)O)[C@@H](C)O)C(=O)N[C@@H](CCC(=O)O)C(=O)N[C@@H](CCC(=O)O)C(=O)N[C@@H](CCC(N)=O)C(=O)N[C@@H](CCCNC(=N)N)C(=O)N[C@@H](CCC(N)=O)C(=O)N[C@@H](CCCCN)C(=O)N[C@@H](CCC(=O)O)C(=O)N[C@@H](Cc1ccccc1)C(=O)N[C@H](C(=O)N[C@@H](CCC(=O)O)C(=O)N[C@@H](Cc1c[nH]c2ccccc12)C(=O)N[C@@H](CC(C)C)C(=O)N[C@@H](CCCCN)C(=O)N[C@@H](C)C(=O)N[C@H](C)C(=O)NCC(=O)N1CCC[C@H]1C(=O)N1CCC[C@H]1C(=O)N[C@@H](CO)C(=O)NC(C)(C)C(=O)N[C@@H](CCCCN)C(=O)N1CCC[C@H]1C(=O)N1CCC[C@H]1C(=O)N1CCC[C@H]1C(=O)N[C@@H](CCCCN)C(N)=O)[C@@H](C)CC)C(=O)O)C(=O)O [SEQ ID NO: 9, H-Aib-H-G-T-F-T-S-D-L-S-K-L-K[gGlu-gGlu-Palm]-E-E-Q-R-Q-K-E-F-I-E-W-L-K-A-dAla-G-P-P-S-Aib-K-P-P-P-K-NH2] (H-H[Aib]HGTFTSDLSKLK([γGlu-γGlu-Palmitoyl])EEQRQKEFIEWLKA[dA]GPPS[Aib]KPPPK-NH2)"
−0.3,2.9,2.6,"CCCCCCCCCCCCCCCC(=O)N[C@@H](CCC(=O)N[C@@H](CCC(=O)NCCCC[C@H](NC(=O)[C@H](CC(C)C)NC(=O)[C@H](CCCCN)NC(=O)[C@H](CO)NC(=O)[C@H](CC(C)C)NC(=O)[C@H](CC(=O)O)NC(=O)[C@H](CO)NC(=O)[C@@H](NC(=O)[C@H](Cc1ccccc1)NC(=O)[C@@H](NC(=O)CNC(=O)[C@H](Cc1c[nH]cn1)NC(=O)C(C)(C)NC(=O)[C@@H](N)Cc1c[nH]cn1)[C@@H](C)O)[C@@H](C)O)C(=O)N[C@@H](CCC(=O)O)C(=O)N[C@@H](CCC(=O)O)C(=O)N[C@@H](CCC(N)=O)C(=O)N[C@@H](CCCNC(=N)N)C(=O)N[C@@H](CCC(N)=O)C(=O)NC(C)(C)C(=O)N[C@@H](CCC(=O)O)C(=O)N[C@@H](Cc1ccccc1)C(=O)N[C@H](C(=O)N[C@@H](CCC(=O)O)C(=O)N[C@@H](Cc1c[nH]c2ccccc12)C(=O)N[C@@H](CC(C)C)C(=O)N[C@@H](CCCCN)C(=O)N[C@@H](C)C(=O)NCC(=O)NCC(=O)N[C@@H](Cc1c[nH]cn1)C(=O)N1CCC[C@H]1C(=O)N[C@@H](CO)C(=O)NC(C)(C)C(=O)N[C@@H](CCCCN)C(=O)N1CCC[C@H]1C(=O)N1CCC[C@H]1C(=O)N1CCC[C@H]1C(=O)N[C@@H](CCCCN)C(N)=O)[C@@H](C)CC)C(=O)O)C(=O)O [SEQ ID NO: 12, H-Aib-H-G-T-F-T-S-D-L-S-K-L-K[gGlu-gGlu-Palm]-E-E-Q-R-Q-Aib-E-F-I-E-W-L-K-A-G-G-H-P-S-Aib-K-P-P-P-K-NH2]"
−0.3,2.8,2.5,"CCCCCCCCCCCCCCCC(=O)N[C@@H](CCC(=O)N[C@@H](CCC(=O)NCCCC[C@H](NC(=O)[C@H](CC(C)C)NC(=O)[C@H](CCCCN)NC(=O)[C@H](CO)NC(=O)[C@H](CC(C)C)NC(=O)[C@H](CC(=O)O)NC(=O)[C@H](CO)NC(=O)[C@@H](NC(=O)[C@H](Cc1ccccc1)NC(=O)[C@@H](NC(=O)CNC(=O)[C@H](Cc1c[nH]cn1)NC(=O)C(C)(C)NC(=O)[C@@H](N)Cc1c[nH]cn1)[C@@H](C)O)[C@@H](C)O)C(=O)N[C@@H](CCC(=O)O)C(=O)N[C@@H](CCC(=O)O)C(=O)N[C@@H](CCC(N)=O)C(=O)N[C@@H](CCCNC(=N)N)C(=O)N[C@@H](CCC(N)=O)C(=O)NC(C)(C)C(=O)N[C@@H](CCC(=O)O)C(=O)N[C@@H](Cc1ccccc1)C(=O)N[C@H](C(=O)N[C@@H](CCC(=O)O)C(=O)N[C@@H](Cc1c[nH]c2ccccc12)C(=O)N[C@@H](CC(C)C)C(=O)N[C@@H](CCCCN)C(=O)N[C@@H](C)C(=O)N[C@H](C)C(=O)NCC(=O)N[C@@H](Cc1c[nH]cn1)C(=O)N1CCC[C@H]1C(=O)N[C@@H](CO)C(=O)NC(C)(C)C(=O)N[C@@H](CCCCN)C(=O)N1CCC[C@H]1C(=O)N1CCC[C@H]1C(=O)N1CCC[C@H]1C(=O)N[C@@H](CCCCN)C(N)=O)[C@@H](C)CC)C(=O)O)C(=O)O [SEQ ID NO: 13, H-Aib-H-G-T-F-T-S-D-L-S-K-L-K[gGlu-gGlu-Palm]-E-E-Q-R-Q-Aib-E-F-I-E-W-L-K-A-dAla-G-H-P-S-Aib-K-P-P-P-K-NH2] (H-H[Aib]HGTFTSDLSKLK([γGlu-γGlu-Palmitoyl])EEQRQ[Aib]EFIEWLKA[dA]GHPS[Aib]KPPPK-NH2)"
